From US20240408169A1 (priority 2023, published 2024)
Read-outs that look alike come from different tables or passages of the source. *1 amine or outer side, *2 acyl side, *3 side chain or, on linkers, in order; H or OH if unused. Where a SMILES comes first, the peptide text is derived from it. Bridges are numbered along the chain shown (N, C = ends). [ ]: non-standard residue; d: D form. The star is where a group is joined. X126 = CC(C)C(=O)N1[C@H]2COC[C@@H]1C=C(c1ccc(F)cc1C[C@@H](C(=O)[*:2])N(C)[*:1])C2; X127 = CN([C@@H](Cc1cc(F)ccc1-c1cnn(S(=O)(=O)C2CC2)c1)C(=O)[*:2])[*:1]; X149 = CN([C@@H](Cc1cc(Cl)ccc1-c1ccnc(N2CCOCC2)c1F)C(=O)[*:2])[*:1]; X68 = CN([C@@H](Cc1cc(Cl)ccc1-c1cnn(C2CC2)c1)C(=O)[*:2])[*:1]; NMehhhLys(Me) = CN([C@@H](CCCCCCCN(C)[*:3])C(=O)[*:2])[*:1]; X112 = CN([C@@H](Cc1cc(F)ccc1-c1cnn(C)c1)C(=O)[*:2])[*:1]; NMe(hhhLys) = CN([C@@H](CCCCCCCN[*:3])C(=O)[*:2])[*:1]; cBuCO(3,3-F2-1-CF3) = O=C(C1(C(F)(F)F)CC(F)(F)C1)*; Pro(trans-4-F) = O=C(O)[C@@H]1C[C@@H](F)CN1; Gly(cPr) = N[C@H](C(=O)O)C1CC1

Columns and labels:
[1] = biological target: T1, CyclinB1/CDK1 (Homo sapiens, UniProt P14635); test: Fluorescence Polarization (FP) competitive binding assay, Cyclin B1/Cdk1;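 further: fluorescence polarization read after equilibration at room temperature, with IC50 taken from serially diluted dose-response curves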
T1 construct: purchased Eurofins, discovery 14-450

[2] = test system: OVCAR3 cells; test: MTT proliferation assay, OVCAR3; assay type: cell-based; settings: 5 days compound exposure, 1:3 serial dilution starting at 10 μM;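 further: compound given as an 8- or 10-point series, one day after plating, with exposure covering roughly 3-4 cell doublings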
[3] = biological target: T2, CyclinA2/CDK2 (Homo sapiens, UniProt P20248); test: Fluorescence Polarization (FP) competitive binding assay, Cyclin A2/Cdk2;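 further: plates equilibrated two hours at room temperature before polarization reading, IC50 fitted from eight-concentration compound titration curves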
T2 construct: purchased CRELUX Protein Services

[4] = biological target: T3, CyclinE1/CDK2 (Homo sapiens, UniProt P24864); test: Fluorescence Polarization (FP) competitive binding assay, Cyclin E1/Cdk2;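 further: readings taken after two-hour equilibration at room temperature in HEPES buffer with NaCl, DTT, NP-40 and BSA, IC50 fitted from eight-concentration serial dilution series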
T3 construct: purchased Eurofins, discovery 14-475

[5] = test system: NCI-H1048 cells; test: MTT proliferation assay, NCI-H1048; assay type: cell-based; settings: 5 days compound exposure, 1:3 serial dilution starting at 10 μM;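 further: Dose-response in 96-well plates over 8 or 10 concentration points, with exposure spanning 3-4 cell doublings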
[6] = 10 nM Cyclin B1/Cdk1, 2 nM FAM probe; average of 2-3 independent experiments; read-out: Cyclin B FP IC50
[7] = 8 nM Cyclin A2/Cdk2, 2 nM FAM probe, average of 2-3 independent experiments, read-out: Cyclin A FP IC50
[8] = 10 nM Cyclin E1/Cdk2, 2 nM FAM probe, average of 2-3 independent experiments, read-out: Cyclin E FP IC50
[9] = read-out: Cyclin B FP IC50; 10 nM Cyclin B1/Cdk1, 2 nM FAM probe; average of 2-3 independent experiments

SMILES	IC50 [1, 6]	GI50 [2]	IC50 [3, 7]	IC50 [4, 8]	GI50 [5]	IC50 [1, 9]	IC50 ([3]; read-out: Cyclin A FP IC50, 8 nM Cyclin A2/Cdk2, 2 nM FAM probe, average of 2-3 independent experiments)	IC50 [4]	IC50 [3]
CC(C)C[C@H]1NC(=O)[C@H](N(C)C(=O)[C@H](NC(=O)[C@H]2C[C@H](F)CN2C(=O)C2(C#N)CCC2)C2CC2)CCCCCCCN(C)C(=O)[C@@H](Cc2cc(Cl)ccc2-c2cnn(C)c2)N(C)C1=O [Example 82]	20 nM	70 nM	20 nM	220 nM	30 nM				
CC(C)C[C@@H]1NC(=O)[C@@H](N(C)C(=O)[C@H](C)NC(=O)[C@@H]2C[C@@H](F)CN2C(=O)C2(C(F)(F)F)CC(F)(F)C2)CC=CCCCCNC(=O)[C@H](Cc2cc(Cl)ccc2Cl)N(C)C1=O [Example 54]	30 nM	700 nM	390 nM	3390 nM	470 nM				
CC(C)C[C@@H]1NC(=O)[C@@H](N(C)C(=O)[C@@H](NC(=O)[C@@H]2C[C@@H](F)CN2C(=O)C2(C(F)(F)F)CC(F)(F)C2)C2CC2)CCCCCCCNC(=O)[C@H](Cc2cc(Cl)ccc2-c2cnn(C3CC3)c2)N(C)C1=O [Example 67] ({cBuCO(3,3-F2-1-CF3)}-[Pro(trans-4-F)][Gly(cPr)][NMe(hhhLys)]L[X68]; lactam 3-C)	20 nM	10 nM	20 nM	500 nM	10 nM				
CC(C)C[C@@H]1NC(=O)[C@@H](N(C)C(=O)[C@@H](NC(=O)[C@@H]2C[C@@H](F)CN2C(=O)C2(C(F)(F)F)CC(F)(F)C2)C2CC2)CCCCCCCN(C)C(=O)[C@H](Cc2cc(Cl)ccc2-c2ccnc(N3CCOCC3)c2F)N(C)C1=O [Example 349] ({cBuCO(3,3-F2-1-CF3)}-[Pro(trans-4-F)][Gly(cPr)][NMehhhLys(Me)]L[X149]; lactam 3-C)	20 nM	10 nM	20 nM	230 nM	10 nM				
CC(C)C[C@@H]1NC(=O)[C@@H](N(C)C(=O)[C@@H](NC(=O)[C@@H]2C[C@@H](F)CN2C(=O)C2(C(F)(F)F)CC(F)(F)C2)C2CC2)CCCC=CCCNC(=O)[C@H](Cc2cc(Cl)ccc2-c2cnn(C)c2)N(C)C1=O [Example 285]	20 nM	30 nM	60 nM	1700 nM	50 nM				
CC(C)C[C@@H]1NC(=O)[C@@H](N(C)C(=O)[C@@H](NC(=O)[C@@H]2C[C@@H](F)CN2C(=O)C2(C(F)(F)F)CCC2)C2CC2)CC=CCCCCNC(=O)[C@H](Cc2cc(Cl)cnc2OC2CC2)N(C)C1=O (single isomer, unassigned) [Example 107-P2]	20 nM	320 nM	110 nM	180 nM	190 nM				
CC(C)C[C@@H]1NC(=O)[C@@H](N(C)C(=O)[C@@H](NC(=O)[C@@H]2C[C@@H](F)CN2C(=O)C2(C(F)(F)F)CC(F)(F)C2)C2CC2)CCCCCCCNC(=O)[C@H](Cc2cc(F)ccc2-c2cnn(C)c2)N(C)C1=O [Example 215] ({cBuCO(3,3-F2-1-CF3)}-[Pro(trans-4-F)][Gly(cPr)][NMe(hhhLys)]L[X112]; lactam 3-C)		10 nM			10 nM	20 nM	20 nM	200 nM	
CC(C)C[C@@H]1NC(=O)[C@@H](N(C)C(=O)[C@@H](NC(=O)[C@@H]2C[C@@H](F)CN2C(=O)C2(C(F)(F)F)CC(F)(F)C2)C2CC2)CCCCCCCN(C)C(=O)[C@H](Cc2cc(F)ccc2-c2cnn(S(=O)(=O)C3CC3)c2)N(C)C1=O [Example 252] ({cBuCO(3,3-F2-1-CF3)}-[Pro(trans-4-F)][Gly(cPr)][NMehhhLys(Me)]L[X127]; lactam 3-C)		20 nM			10 nM	20 nM		380 nM	30 nM
CC(C)C[C@@H]1NC(=O)[C@@H](N(C)C(=O)[C@@H](NC(=O)[C@@H]2C[C@@H](F)CN2C(=O)C2(C(F)(F)F)CC(F)(F)C2)C2CC2)CCCCCCCNC(=O)[C@H](Cc2cc(F)ccc2C2=C[C@H]3COC[C@@H](C2)N3C(=O)C(C)C)N(C)C1=O [Example 326] ({cBuCO(3,3-F2-1-CF3)}-[Pro(trans-4-F)][Gly(cPr)][NMe(hhhLys)]L[X126]; lactam 3-C)	20 nM	10 nM	20 nM	150 nM	10 nM				
